# Assay results taken from patent US20140348819A1, “Methods of Treating Cancer” (Dana-Farber Cancer Institute, Inc., priority 2011, published 2014).
# Several values for one entry are separate records, joined by “and”; a condition that tells them apart may be missing. Equal values may be shown once.
# Tests used:
# [1] = test system: BRAF V600E melanoma patients; experiment: Clinical response of BRAF V600E melanoma patients to BRAFi or BRAFi + MEKi (Table 7); assay type: in vivo, human; details: one line per patient
# [2] = test system: six V600E BRAF melanoma cell lines; experiment: Screening of recombinant RTK ligands for ability to confer resistance to BRAFi (PLX4720) or MEKi (PD184352) (Table 4); assay type: cell-based, human; parameters: ability of recombinant RTK ligand to confer resistance / ability of recombinant RTK ligand to confer resistance (screening value): scale not given here
# Summary of the method: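 Six V600E BRAF melanoma lines treated with PLX4720 or PD184352 after addition of 22 recombinant RTK ligands, scored for drug resistance. Activation of selected RTKs confirmed by western blotting and high-throughput tyrosine kinase phosphorylation profiling.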
# pERK/pAKT = experiment: High-throughput western analysis of pERK/pAKT re-activation by RTK ligands under BRAFi/MEKi; assay type: cell-based, human; details: under BRAFi (PLX4720); after 1 hour of cytokine treatment; six V600E BRAF melanoma cell lines
# Method: FIG. 23B is a western blot showing the activation of AKT (phosphorylated AKT, S473) after 1 hour and 24 hours after treatment with HGF, IGF-1 (IGF), and Insulin (INS) in the presence of BRAFi (PLX4720, 2 μM). FIG. 23C is a western blot showing the effect of HGF (25 ng/mL) on MAPK and PI3K/AKT pathway activation (pRAF1, pMEK, pERK, pAKT and pMET) in melanoma cell lines after 24 hours of treatment with 2 μM BRAFi (PLX4720) or 2 μM MEKi (PD184352).
# To understand why, of all the RTKs tested, only HGF could induce such a unique primary resistance phenotype, a high-throughput western analysis was used to test the ability of all 22 RTK ligands to re-activate pERK/pAKT under BRAFi (PLX4720) treatment in six V600E BRAF melanoma cell lines. […] However, whereas the activation of both ERK and AKT by HGF under PLX4720 treatment was long lasting, the activation of either ERK or AKT by the above cytokines was only transient and thus could not confer resistance to the melanoma cell lines.
# [3] = test system: V600E BRAF melanoma cell lines; experiment: HGF-induced / stromal resistance of melanoma cell lines to BRAF, MEK and AKT inhibitors and its reversal; assay type: cell-based, human; details: V600E BRAF melanoma cell lines with recombinant HGF
# DLD-1 cells = experiment: Crizotinib synergistic effect with BRAFi in colorectal cells (FIG. 9); assay type: cell-based, human
# From the text: The DLD-1 cells do harbor the BRAF activating mutation V600E but are not sensitive at all to BRAF inhibition. They actually grow faster under BRAFi.
molecule,measurement,setting,value
CC(C)(C)c1nc(-c2cccc(NS(=O)(=O)c3c(F)cccc3F)c2F)c(-c2ccnc(N)n2)s1 [GSK2118436],Response (Max),[1],9% and 40%
same,Time to progression (months),[1],3.5 months and 2.5 months
"EGF: RTK ligand (EGFR), cytokine tested",ability of recombinant RTK ligand to confer resistance,"[2]; A2058, PD184352 - 1 uM, ligand 0.4 ng/ml",1.05
same,ability of recombinant RTK ligand to confer resistance,"[2]; A2058, PD184352 - 1 uM, ligand 1.6 ng/ml",1.04
same,ability of recombinant RTK ligand to confer resistance,"[2]; A2058, PD184352 - 1 uM, ligand 6.25 ng/ml",0.95
same,ability of recombinant RTK ligand to confer resistance,"[2]; A2058, PD184352 - 1 uM, ligand 25 ng/ml",0.96
same,ability of recombinant RTK ligand to confer resistance,"[2]; A2058, PD184352 - 1 uM, ligand 100 ng/ml",1.00
same,ability of recombinant RTK ligand to confer resistance,"[2]; A2058, PLX4720 - 2 uM, ligand 0.4 ng/ml",1.02
same,ability of recombinant RTK ligand to confer resistance,"[2]; A2058, PLX4720 - 2 uM, ligand 1.6 ng/ml",1.03
same,ability of recombinant RTK ligand to confer resistance,"[2]; A2058, PLX4720 - 2 uM, ligand 6.25 ng/ml",0.93
same,ability of recombinant RTK ligand to confer resistance,"[2]; A2058, PLX4720 - 2 uM, ligand 25 ng/ml",0.97
same,ability of recombinant RTK ligand to confer resistance,"[2]; A2058, PLX4720 - 2 uM, ligand 100 ng/ml",0.99
same,ability of recombinant RTK ligand to confer resistance,"[2]; C32, PD184352 - 1 uM, ligand 0.4 ng/ml",1.01
same,ability of recombinant RTK ligand to confer resistance,"[2]; C32, PD184352 - 1 uM, ligand 1.6 ng/ml",0.97
same,ability of recombinant RTK ligand to confer resistance,"[2]; C32, PD184352 - 1 uM, ligand 6.25 ng/ml",1.06
same,ability of recombinant RTK ligand to confer resistance,"[2]; C32, PD184352 - 1 uM, ligand 25 ng/ml",1.01
same,ability of recombinant RTK ligand to confer resistance,"[2]; C32, PD184352 - 1 uM, ligand 100 ng/ml",0.99
same,ability of recombinant RTK ligand to confer resistance,"[2]; C32, PLX4720 - 2 uM, ligand 0.4 ng/ml",1.06
same,ability of recombinant RTK ligand to confer resistance,"[2]; C32, PLX4720 - 2 uM, ligand 1.6 ng/ml",0.94
same,ability of recombinant RTK ligand to confer resistance,"[2]; C32, PLX4720 - 2 uM, ligand 6.25 ng/ml",1.03
same,ability of recombinant RTK ligand to confer resistance,"[2]; C32, PLX4720 - 2 uM, ligand 25 ng/ml",0.93
same,ability of recombinant RTK ligand to confer resistance,"[2]; C32, PLX4720 - 2 uM, ligand 100 ng/ml",0.99
same,ability of recombinant RTK ligand to confer resistance,"[2]; Colo 829, PD184352 - 1 uM, ligand 0.4 ng/ml",0.97
same,ability of recombinant RTK ligand to confer resistance,"[2]; Colo 829, PD184352 - 1 uM, ligand 1.6 ng/ml",0.96
same,ability of recombinant RTK ligand to confer resistance,"[2]; Colo 829, PD184352 - 1 uM, ligand 6.25 ng/ml",0.99
same,ability of recombinant RTK ligand to confer resistance,"[2]; Colo 829, PD184352 - 1 uM, ligand 25 ng/ml",0.94
same,ability of recombinant RTK ligand to confer resistance,"[2]; Colo 829, PD184352 - 1 uM, ligand 100 ng/ml",1.00
same,ability of recombinant RTK ligand to confer resistance,"[2]; Colo 829, PLX4720 - 2 uM, ligand 0.4 ng/ml",1.02
same,ability of recombinant RTK ligand to confer resistance,"[2]; Colo 829, PLX4720 - 2 uM, ligand 1.6 ng/ml",1.00
same,ability of recombinant RTK ligand to confer resistance,"[2]; Colo 829, PLX4720 - 2 uM, ligand 6.25 ng/ml",1.00
same,ability of recombinant RTK ligand to confer resistance,"[2]; Colo 829, PLX4720 - 2 uM, ligand 25 ng/ml",0.97
same,ability of recombinant RTK ligand to confer resistance,"[2]; Colo 829, PLX4720 - 2 uM, ligand 100 ng/ml",1.01
same,ability of recombinant RTK ligand to confer resistance,"[2]; G-361, PD184352 - 1 uM, ligand 0.4 ng/ml",1.01
same,ability of recombinant RTK ligand to confer resistance,"[2]; G-361, PD184352 - 1 uM, ligand 1.6 ng/ml",0.90
same,ability of recombinant RTK ligand to confer resistance,"[2]; G-361, PD184352 - 1 uM, ligand 6.25 ng/ml",0.97
same,ability of recombinant RTK ligand to confer resistance,"[2]; G-361, PD184352 - 1 uM, ligand 25 ng/ml",1.00
same,ability of recombinant RTK ligand to confer resistance,"[2]; G-361, PD184352 - 1 uM, ligand 100 ng/ml",0.96
same,ability of recombinant RTK ligand to confer resistance,"[2]; G-361, PLX4720 - 2 uM, ligand 0.4 ng/ml",0.98
same,ability of recombinant RTK ligand to confer resistance,"[2]; G-361, PLX4720 - 2 uM, ligand 1.6 ng/ml",0.90
same,ability of recombinant RTK ligand to confer resistance,"[2]; G-361, PLX4720 - 2 uM, ligand 6.25 ng/ml",0.94
same,ability of recombinant RTK ligand to confer resistance,"[2]; G-361, PLX4720 - 2 uM, ligand 25 ng/ml",0.99
same,ability of recombinant RTK ligand to confer resistance,"[2]; G-361, PLX4720 - 2 uM, ligand 100 ng/ml",0.93
same,ability of recombinant RTK ligand to confer resistance,"[2]; SK-MEL-5, PD184352 - 1 uM, ligand 0.4 ng/ml",0.99
same,ability of recombinant RTK ligand to confer resistance,"[2]; SK-MEL-5, PD184352 - 1 uM, ligand 1.6 ng/ml",1.04
same,ability of recombinant RTK ligand to confer resistance,"[2]; SK-MEL-5, PD184352 - 1 uM, ligand 6.25 ng/ml",1.08
same,ability of recombinant RTK ligand to confer resistance,"[2]; SK-MEL-5, PD184352 - 1 uM, ligand 25 ng/ml",1.11
same,ability of recombinant RTK ligand to confer resistance,"[2]; SK-MEL-5, PD184352 - 1 uM, ligand 100 ng/ml",1.01
same,ability of recombinant RTK ligand to confer resistance,"[2]; SK-MEL-5, PLX4720 - 2 uM, ligand 0.4 ng/ml",1.08
same,ability of recombinant RTK ligand to confer resistance,"[2]; SK-MEL-5, PLX4720 - 2 uM, ligand 1.6 ng/ml",1.15
same,ability of recombinant RTK ligand to confer resistance,"[2]; SK-MEL-5, PLX4720 - 2 uM, ligand 6.25 ng/ml",1.19
same,ability of recombinant RTK ligand to confer resistance,"[2]; SK-MEL-5, PLX4720 - 2 uM, ligand 25 ng/ml",1.22
same,ability of recombinant RTK ligand to confer resistance,"[2]; SK-MEL-5, PLX4720 - 2 uM, ligand 100 ng/ml",1.11
same,ability of recombinant RTK ligand to confer resistance,"[2]; SK-MEL-28, PD184352 - 1 uM, ligand 0.4 ng/ml",1.03
same,ability of recombinant RTK ligand to confer resistance,"[2]; SK-MEL-28, PD184352 - 1 uM, ligand 1.6 ng/ml",0.97
same,ability of recombinant RTK ligand to confer resistance,"[2]; SK-MEL-28, PD184352 - 1 uM, ligand 6.25 ng/ml",0.93
same,ability of recombinant RTK ligand to confer resistance,"[2]; SK-MEL-28, PD184352 - 1 uM, ligand 25 ng/ml",0.97
same,ability of recombinant RTK ligand to confer resistance,"[2]; SK-MEL-28, PD184352 - 1 uM, ligand 100 ng/ml",1.05
same,ability of recombinant RTK ligand to confer resistance,"[2]; SK-MEL-28, PLX4720 - 2 uM, ligand 0.4 ng/ml",1.00
same,ability of recombinant RTK ligand to confer resistance,"[2]; SK-MEL-28, PLX4720 - 2 uM, ligand 1.6 ng/ml",1.01
same,ability of recombinant RTK ligand to confer resistance,"[2]; SK-MEL-28, PLX4720 - 2 uM, ligand 6.25 ng/ml",0.97
same,ability of recombinant RTK ligand to confer resistance,"[2]; SK-MEL-28, PLX4720 - 2 uM, ligand 25 ng/ml",0.94
same,ability of recombinant RTK ligand to confer resistance,"[2]; SK-MEL-28, PLX4720 - 2 uM, ligand 100 ng/ml",1.03
same,re-activation of pERK/pAKT,pERK/pAKT,reactivate only ERK
C[C@@H](Oc1cc(-c2cnn(C3CCNCC3)c2)cnc1N)c1c(Cl)ccc(F)c1Cl [Crizotinib],reversal of HGF-conferred BRAF/MEK inhibitor resistance,[3],directly reversed
same,synergistic effect of Crizotinib,"DLD-1 cells; DLD-1 cells, FIG. 9B",no substantial synergistic effect
same,sensitivity of colorectal cancer cell line to BRAFi on addition of Crizotinib,"DLD-1 cells; cell line printed as DLD-1, BRAF V600E",restores full sensitivity
IGF-1: RTK ligand of IGF-1R,ability of RTK ligand to confer primary resistance,"[2]; six V600E BRAF melanoma cell lines, BRAFi (PLX4720) or MEKi (PD184352)",not shown to induce primary resistance
same,re-activation of pERK/pAKT,pERK/pAKT,only reactivate AKT
CCCS(=O)(=O)Nc1ccc(F)c(C(=O)c2c[nH]c3ncc(-c4ccc(Cl)cc4)cc23)c1F [Vemurafenib],Response (Max),[1],90% and 72% (2×) and 50% and 100% and 25% and 23% and 22% and 10% and 0% (4×) and 54% and 34% and 20% and 56% and 27%
same,"Response (Max), category",[1],POD
same,Time to progression (months),[1],7 months and 3.2 months and 5 months (2×) and 3 months and 12.4 months and 8 months and 5.4 months and 4.5 months and 8.5 months and 6.0 months and 7.3 months and 3.5 months and 6.5 months and 1.3 months
